Data on twelve compounds can be found in patent US20240158369A1, “PYRIMIDINE COMPOUND AS WEE-1 INHIBITOR” (WIGEN BIOMEDICINE TECHNOLOGY (SHANGHAI) CO., LTD., priority 2021, published 2024).

Structures are written as SMILES.

What is called IC50 is the midpoint of a concentration-inhibition curve.

In assay [1] the test system is MIA PaCa-2 cells. The assay is described as follows: In-vitro anti-proliferative activity on MIA PaCa-2 cells (intracellular ATP content, 72 h). Type of assay: cell-based. The settings on record: Homo sapiens, compound alone, read-out: IC50 (nM) antiproliferative activity against MIA PaCa-2 cells. The protocol: MIA PaCa-2 cells were seeded on a 384-well plate at 3000 cells/well. After overnight adherence culture, DMSO or the compounds serially 1:5-diluted from 5 μM were added. The viability was assessed 72 h after dosing by measuring the intracellular ATP content. The inhibition percentage of viable cells by the compounds was calculated by comparing with the DMSO group, and the IC50 value was calculated.

The target of assay [2] is recombinant protein Wee-1 (Homo sapiens (Human), UniProt P30291). The experiment in a line: HTRF assay for inhibiting enzymatic activity of recombinant protein Wee-1. Type of assay: biochemical. The settings on record: compounds up to 200 nM, read-out: (IC50) Inhibitory activity against recombinant protein Wee-1. The essentials: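 Compound (up to 200 nM, 1:5 series) preincubated with Wee-1 in kinase buffer 30 min at 37° C; Fluorescein-PolyGAT and ATP then added, reaction run 90 min at room temperature. Antibody detection 60 min; 520/495 nm ratio versus DMSO gave % inhibition and IC50.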
A general note: In TR-FRET formats the signal depends on donor and acceptor labels being close together.

Assay [3] concerns MIA PaCa-2 cells. The experiment in a line: In-vitro anti-proliferative activity in combination with gemcitabine on MIA PaCa-2 cells. Type of assay: cell-based. Conditions: 72 h. The protocol: MIA PaCa-2 cells were seeded on a 384-well plate at 3000 cells/well, and 20 nM or 200 nM gemcitabine (GMC) was added. After overnight adherence culture, DMSO or the compounds serially 1:5-diluted from 100 nM were added. The viability was assessed 72 h after dosing by measuring the intracellular ATP content. The inhibition percentage of viable cells by the compounds was calculated by comparing with the DMSO group, and the IC50 value was calculated.

The subject of assay [4] is HT29 subcutaneous xenograft tumor. The assay is described as follows: Mouse HT29 subcutaneous xenograft tumor model (Example 165), with 30 mg/kg gemcitabine. Type of assay: in vivo. The protocol: HT29 is a colon cancer cell. Each nude mouse was grafted subcutaneously with 5×10^6HT29 cells. When the tumor grew to 100-200 mm^3, the compound was administered orally once a day in combination with 30 mg/kg of gemcitabine injected intraperitoneally once a week, and the tumor volume was measured twice a week and at the end of treatment. Tumor growth inhibition of the compound was calculated according to the following equation: tumor growth inhibition (TGI)=1−(tumor volume on day 20 in treatment group−tumor volume on day 1 in treatment group)/(tumor volume on day 20 in vehicle control group−tumor volume on day 1 in treatment group).

For assay [5] the test system is unchanged. The experiment in a line: Mouse HT29 subcutaneous xenograft tumor model (Example 164), alone or with 15 mg/kg gemcitabine. Conditions: gemcitabine alone 15 mg/kg intraperitoneally once a week. Format: in vivo. The protocol: HT29 is a colon cancer cell. Each nude mouse was grafted subcutaneously with 5×10^6HT29 cells. When the tumor grew to 100-200 mm^3, the compound was administered orally once a day alone or in combination with 15 mg/kg of gemcitabine injected intraperitoneally once a week, and the tumor volume was measured twice a week and at the end of treatment. Tumor growth inhibition of the compound was calculated according to the following equation: tumor growth inhibition (TGI)=1−(tumor volume on day 20 in treatment group−tumor volume on day 1 in treatment group)/(tumor volume on day 20 in vehicle control group−tumor volume on day 1 in treatment group).

Setting [6] is: with 20 nM gemcitabine, read-out: in combination with 20 nM GMC IC50.
[7] abbreviates: 30 mg/kg orally once a day in combination with 30 mg/kg of gemcitabine ip once a week.
[8] abbreviates: 30 mg/kg orally once a day in combination with 30 mg/kg of gemcitabine ip once a week, day 20.

recombinant protein Wee-1, sequence (P30291 whole entry): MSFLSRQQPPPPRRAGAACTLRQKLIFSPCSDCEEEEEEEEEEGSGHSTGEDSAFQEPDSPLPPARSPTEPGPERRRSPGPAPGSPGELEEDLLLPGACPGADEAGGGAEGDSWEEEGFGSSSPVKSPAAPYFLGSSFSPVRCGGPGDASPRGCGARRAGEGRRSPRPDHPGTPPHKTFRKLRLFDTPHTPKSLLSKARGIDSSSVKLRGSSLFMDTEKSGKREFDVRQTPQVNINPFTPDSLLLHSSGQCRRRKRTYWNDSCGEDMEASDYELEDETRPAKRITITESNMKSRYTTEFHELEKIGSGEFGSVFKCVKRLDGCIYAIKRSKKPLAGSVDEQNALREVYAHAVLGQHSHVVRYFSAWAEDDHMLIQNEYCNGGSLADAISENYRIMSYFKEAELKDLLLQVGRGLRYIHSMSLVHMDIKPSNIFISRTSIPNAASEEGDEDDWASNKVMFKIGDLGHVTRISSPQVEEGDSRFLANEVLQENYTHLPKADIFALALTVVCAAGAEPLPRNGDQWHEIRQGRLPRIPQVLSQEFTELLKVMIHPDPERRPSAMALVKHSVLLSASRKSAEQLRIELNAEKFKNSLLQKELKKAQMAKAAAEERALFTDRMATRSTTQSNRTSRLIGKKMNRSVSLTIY

Take `CN1CCc2ccc(Nc3ncc(C#N)c(Nc4cccc(N=S(C)(C)=O)n4)n3)cc2C1` [Compound 1]: the values for the IC50 (in the assay on MIA PaCa-2 cells [1]; in assay [2]; in the assay with MIA PaCa-2 cells [3] (setting [6])) were 735 nM, ≤ 10 nM and 4.6 nM, respectively.

As for `CN1CCc2ccc(Nc3ncc(C(F)(F)F)c(Nc4cccc(N=S(C)(C)=O)n4)n3)cc2C1` [Compound 2], the 50% inhibitory concentration (IC50) with MIA PaCa-2 cells [1] was 398 nM; in assay [2] it was > 50 nM; with MIA PaCa-2 cells [3] (setting [6]), 30 nM.

Consider `CN1CCc2ccc(Nc3ncc(C4CC4)c(Nc4cccc(N=S(C)(C)=O)n4)n3)cc2C1` [Compound 3], for which the IC50 was 879 nM in the assay on MIA PaCa-2 cells [1]; > 50 nM in assay [2]; > 100 nM with MIA PaCa-2 cells [3] (with 200 nM gemcitabine, read-out: in combination with 200 nM GMC IC50).

For `CN1CCc2ccc(Nc3ncc(P(C)(C)=O)c(Nc4cccc(N=S(C)(C)=O)n4)n3)cc2C1` [Compound 4], the values for the IC50 (in the assay with MIA PaCa-2 cells [1]; in assay [2]; in the assay on MIA PaCa-2 cells [3] (setting [6])) were > 5000 nM, > 50 nM and > 100 nM, respectively.

In the case of `CC(C)c1cc(Nc2ncc(C#N)c(Nc3cccc(N=S(C)(C)=O)n3)n2)cc2c1CCN(C)C2` [Compound 14], in assay [4] (setting [7]), the “Tumor volume on day 20 of treatment (mm^3)” value was 38 mm^3. Also, the TGI in assay [4] (setting [8]) turned out to be 106%. The IC50 in assay [2] was ≤ 10 nM; with MIA PaCa-2 cells [3] (setting [6]), 1 nM.

On to `CN1CCc2c(cc(Nc3ncc(C#N)c(Nc4cccc(N=S(C)(C)=O)n4)n3)cc2C2CCCC2)C1` [Compound 18], for which the “Tumor volume on day 20 of treatment (mm^3)” value in assay [4] (setting [7]) came out at 218 mm^3. For the same compound, the TGI in assay [4] (setting [8]) was 92%. In addition, the IC50 in assay [2] was ≤ 10 nM; in the assay with MIA PaCa-2 cells [3] (setting [6]), 2.1 nM.

In the case of `CC(C)Cc1cc(Nc2ncc(C#N)c(Nc3cccc(N=S(C)(C)=O)n3)n2)cc2c1CCN(C)C2` [Compound 87], the “Tumor volume on day 20 of treatment (mm^3)” value in assay [4] (setting [7]) is 395 mm^3. Further, the TGI in assay [4] (setting [8]) is 79%. Further, the half-maximal inhibitory concentration (IC50) in the assay on MIA PaCa-2 cells [3] (setting [6]) turned out to be 1.8 nM.

With `CN1CCc2c(cc(Nc3ncc(C#N)c(Nc4cccc(N=S(C)(C)=O)n4)n3)cc2C2CCC2)C1` [Compound 97], in assay [4] (setting [7]), the “Tumor volume on day 20 of treatment (mm^3)” value is on record as 278 mm^3. Besides, in assay [4] (setting [8]), the TGI worked out at 88%. Also, the results for the half-maximal inhibitory concentration (IC50) (in assay [2]; in the assay with MIA PaCa-2 cells [3] (setting [6])) were ≤ 10 nM and 1.6 nM, respectively.

Take `CN1CCc2c(cc(Nc3ncc(C#N)c(Nc4cccc(N=S(C)(C)=O)n4)n3)cc2C2(C)CC2)C1` [Compound 101]: the “Tumor volume on day 20 of treatment (mm^3)” value in assay [4] (setting [7]) was determined as 95 mm^3. In addition, in assay [4] (setting [8]), the TGI was 102%. In addition, the half-maximal inhibitory concentration (IC50) in assay [2] was ≤ 10 nM; in the assay on MIA PaCa-2 cells [3] (setting [6]), 4.4 nM.

In the case of `CN1CCc2c(cc(Nc3ncc(C#N)c(Nc4cccc(N=S(C)(C)=O)n4)n3)cc2C2CCOCC2)C1` [Compound 117], the “Tumor volume on day 20 of treatment (mm^3)” value in assay [4] (setting [7]) came to 283 mm^3. Moreover, the TGI in assay [4] (setting [8]) is given as 87%. Also, the IC50 was ≤ 10 nM in assay [2] and 1.5 nM with MIA PaCa-2 cells [3] (setting [6]).

Consider `COCCCc1cc(Nc2ncc(C#N)c(Nc3cccc(N=S(C)(C)=O)n3)n2)cc2c1CCN(C)C2` [Compound 128], for which the “Tumor volume on day 20 of treatment (mm^3)” value in assay [4] (setting [7]) was 284 mm^3. Besides, in assay [4] (setting [8]), the TGI is reported as 87%. The concentration for half-maximal inhibition (IC50) in assay [2] was ≤ 10 nM; in the assay on MIA PaCa-2 cells [3] (setting [6]) it was 2.5 nM.

Regarding `Nc1ccn([C@@H]2O[C@H](CO)[C@@H](O)C2(F)F)c(=O)n1` [Gemcitabine, gemcitabine, reference compound], the inhibition in vivo at 30 mg/kg in assay [4] (Mus musculus, HT-29, ip, 480 h, gemcitabine alone 30 mg/kg intraperitoneally once a week, day 20, read-out: TGI) was 60%. The “Tumor volume on day 20 of treatment (mm^3)” value in assay [4] (gemcitabine alone 30 mg/kg intraperitoneally once a week) is given as 653 mm^3. The “Tumor volume on day 1 of treatment (mm^3)” value in assay [5] (day 1) is on record as 102 mm^3. In assay [5] (day 20), the TGI is given as 54% and the “Tumor volume on day 20 of treatment (mm^3)” value was 550 mm^3.
